Data published in patent US8940898B2, “Piperidinyl alkyne orexin receptor antagonists” (Merck Sharp & Dohme Corp., priority 2011, dated 2015).

Assays:
hOX1 (orexin-1 receptor) = biological target: T1, hOX1 (orexin-1 receptor) (Homo sapiens, UniProt O43613); assay: radioligand binding assay, OX1 receptor (hOX1 Bind hKi); details: membranes from CHO cells expressing the OX1 receptor
T1 construct: expressed in transfected cells; host or cells: CHO cells (membranes)
T1 sequence (O43613 1-425): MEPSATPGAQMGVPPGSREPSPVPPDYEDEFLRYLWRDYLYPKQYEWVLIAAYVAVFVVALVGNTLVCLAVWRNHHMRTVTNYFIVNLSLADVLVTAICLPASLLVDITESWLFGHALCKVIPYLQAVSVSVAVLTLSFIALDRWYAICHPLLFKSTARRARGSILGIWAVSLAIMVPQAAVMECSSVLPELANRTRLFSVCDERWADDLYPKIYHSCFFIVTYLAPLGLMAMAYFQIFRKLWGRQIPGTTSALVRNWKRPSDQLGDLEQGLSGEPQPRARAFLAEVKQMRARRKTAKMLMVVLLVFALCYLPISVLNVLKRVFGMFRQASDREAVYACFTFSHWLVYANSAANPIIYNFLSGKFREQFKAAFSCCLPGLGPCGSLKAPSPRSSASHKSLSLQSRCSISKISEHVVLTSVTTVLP

human orexin-2 receptor = biological target: T2, human orexin-2 receptor (Homo sapiens, UniProt O43614); assay: radioligand binding assay, OX2 receptor (hOX2 Bind hKi); details: membranes from CHO cells expressing the OX2 receptor
T2 construct: expressed in transfected cells; host or cells: CHO cells (membranes)
T2 sequence (O43614 1-444): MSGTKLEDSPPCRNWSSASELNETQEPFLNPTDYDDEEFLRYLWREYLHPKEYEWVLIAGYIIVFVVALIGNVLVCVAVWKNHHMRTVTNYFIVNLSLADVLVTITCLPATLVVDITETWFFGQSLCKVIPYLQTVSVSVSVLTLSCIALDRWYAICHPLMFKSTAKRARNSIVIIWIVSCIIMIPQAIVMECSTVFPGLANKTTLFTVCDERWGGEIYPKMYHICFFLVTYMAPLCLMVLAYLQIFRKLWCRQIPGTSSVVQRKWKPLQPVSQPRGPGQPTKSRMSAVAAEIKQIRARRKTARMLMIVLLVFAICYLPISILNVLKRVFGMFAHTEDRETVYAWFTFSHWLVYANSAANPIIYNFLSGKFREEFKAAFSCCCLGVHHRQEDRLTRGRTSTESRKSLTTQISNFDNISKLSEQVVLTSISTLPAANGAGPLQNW
Method: The utility of the compounds in accordance with the present invention as orexin receptor OX1R and/or OX2R antagonists may be readily determined without undue experimentation by methodology well known in the art, including the “FLIPR Ca^2+ Flux Assay” (Okumura et al., Biochem. Biophys. Res. Comm. 280:976-981, 2001). In a typical experiment the OX1 and OX2 receptor antagonistic activity of the compounds of the present invention was determined in accordance with the following experimental method. For intracellular calcium measurements, Chinese hamster ovary (CHO) cells expressing the rat orexin-1 receptor or the human orexin-2 receptor, are grown in Iscove's modified DMEM containing 2 mM L-glutamine, […], 1% hypoxanthine-thymidine supplement, 100 U/ml penicillin, 100 μg/ml streptomycin and 10% heat-inactivated fetal calf serum (FCS). The cells are seeded at 20,000 cells/well into Becton-Dickinson black 384-well clear bottom sterile plates coated with poly-D-lysine. All reagents were from GIBCO-Invitrogen Corp. The seeded plates are incubated overnight at 37° C. and 5% CO2. Ala-6,12 human orexin-A as the agonist is prepared as a 1 mM stock solution in 1% bovine serum albumin (BSA) and diluted in assay buffer (HBSS containing 20 mM HEPES, 0.1% BSA and 2.5 mM probenecid, pH7.4) for use in the assay at a final concentration of 70 pM. Test compounds are prepared as 10 mM stock solution in DMSO, then diluted in 384-well plates, first in DMSO, then assay buffer. On the day of the assay, cells are washed 3 times with 100 μl assay buffer and then incubated for 60 min (37° C., 5% CO2) in 60 μl assay buffer containing 1 μM Fluo-4AM ester, 0.02% pluronic acid, and 1% BSA. The dye loading solution is then aspirated and cells are washed 3 times with 100 μl assay buffer. 30 μl of that same buffer is left in each well. Within the Fluorescent Imaging Plate Reader (FLIPR, Molecular Devices), test compounds are added to the plate in a volume of 25 μl, incubated for 5 min and finally 25 μl of agonist is added. Fluorescence is measured for each well at 1 second intervals for 5 minutes and the height of each fluorescence peak is compared to the height of the fluorescence peak induced by […] Ala-6,12 orexin-A with buffer in place of antagonist. For each antagonist, IC50 value (the concentration of compound needed to inhibit 50% of the agonist response) is determined. Alternatively, compound potency can be assessed by a radioligand binding assay (described in Bergman et. al. Bioorg. Med. Chem. Lett. 2008, 18, 1425-1430) in which the inhibition constant (Ki) is determined in membranes prepared from CHO cells expressing either the OX1 or OX2 receptor. The intrinsic orexin receptor antagonist activity of a compound which may be used in the present invention may be determined by these assays. The following tables show representative data for the compounds of the Examples as orexin receptor antagonists as determined by the foregoing assays wherein the hOX2 Ki is a measure of the ability of the test compound to inhibit the action of the human orexin-2 receptor and the hOX1R is a measure of the ability of the test compound to inhibit the action of the rat orexin-1 receptor.

| Ki (hOX1 (orexin-1 receptor)) [nM] | Ki (human orexin-2 receptor) [nM] | Compound |
| --- | --- | --- |
| 233 | > 754 | Cc1nc(C(=O)N2CCCCC2C#Cc2ccc3ccccc3n2)c(-c2ccccc2)s1 (stereo not drawn) [Example 24, 2-({1-[(2-methyl-5-phenyl-1,3-thiazol-4-yl)carbonyl]piperidin-2-yl}ethynyl)quinoline] |
| > 364 | > 100 | Cc1nc(C(=O)N2CCCCC2C#Cc2cc3ccccc3cn2)c(-c2ccccc2)s1 (stereo not drawn) [Example 25, 3-({1-[(2-methyl-5-phenyl-1,3-thiazol-4-yl)carbonyl]piperidin-2-yl}ethynyl)isoquinoline] |
| > 1600 | > 6120 | Cc1nc(C(=O)N2CCCCC2C#Cc2cnc3ccccc3c2)c(-c2ccccc2)s1 (stereo not drawn) [Example 26, 3-({1-[(2-methyl-5-phenyl-1,3-thiazol-4-yl)carbonyl]piperidin-2-yl}ethynyl)quinoline] |
